In patent US20040142948A1, “Sulfonamides” (priority 2003, published 2004):

Molecular target: T1, HEK-293 cell membranes containing stable cloned human and rat GPR-14 (UniProt Q9UKP6)
T1 sequence (Q9UKP6 1-389): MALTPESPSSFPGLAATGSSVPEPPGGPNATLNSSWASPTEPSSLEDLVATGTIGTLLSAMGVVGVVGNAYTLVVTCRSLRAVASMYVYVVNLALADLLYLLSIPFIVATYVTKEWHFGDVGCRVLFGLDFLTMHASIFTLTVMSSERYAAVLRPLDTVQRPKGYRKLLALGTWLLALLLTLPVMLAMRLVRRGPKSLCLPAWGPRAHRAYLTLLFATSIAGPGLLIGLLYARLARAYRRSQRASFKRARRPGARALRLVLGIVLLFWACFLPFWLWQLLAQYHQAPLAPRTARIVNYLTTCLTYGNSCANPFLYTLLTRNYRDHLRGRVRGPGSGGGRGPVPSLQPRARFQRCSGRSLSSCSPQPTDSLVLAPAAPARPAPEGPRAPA
Test: Radioligand binding ([125I] h-U-II)
Settings: [125I] h-U-II 200 pM, species of GPR-14 (human or rat) not given
Procedure: HEK-293 cell membranes containing stable cloned human and rat GPR-14 (20 ug/assay) were incubated with 200 pM [125I] h-U-II (200 Ci/mmol^−1 in the presence of increasing concentrations of test compounds in DMSO (0.1 nM to 10 uM), in a final incubation volume of 200 ul (20 mM Tris-HCl, 5 mM MgCl2). Incubation was done for 30 minutes at room temperature followed by filtration GF/B filters with Brandel cell harvester. ^125I labeled U-II binding was quantitated by gamma counting. Nonspecific binding was defined by ^125I U-II binding in the presence of 100 nM of unlabeled human U-II. Analysis of the data was performed by nonlinear least square fitting.

Question: CN1CC[C@@H](Oc2cc(NS(=O)(=O)c3cccc4nsnc34)ccc2Cl)C1 [Example 3, (R)-N-[4-Chloro-3-(1-methyl-3-pyr-rolidinyloxy)-phenyl]-ben-zo[1,2,5]thiadiazole-1-sulfonamide] was tested. Which Ki did it give?
Answer: The Ki was 230 nM.
